In ChEMBL document CHEMBL5244278, “Bioisosteres of the Phenyl Ring: Recent Strategic Applications in Lead Optimization and Drug Design” (J Med Chem, 2021):
Converted amounts (≈) assume the structure as drawn.

Tests used:
[1] = Lipophilicity, logD of the compound in 1-octanol and phosphate buffer by tandem mass spectrometer analysis; type: physicochemical; details: 1-octanol/phosphate buffer
[2] = Solubility of compound at pH 6.8 by RapidFire mass spectrometry; type: physicochemical; details: buffer
hERG (KCNH2) = hERG (KCNH2) (Homo sapiens, UniProt Q12809); assay: (§1) Inhibition of hERG channel; type: toxicity; details: human
Sequence of hERG (KCNH2) (Q12809 whole entry): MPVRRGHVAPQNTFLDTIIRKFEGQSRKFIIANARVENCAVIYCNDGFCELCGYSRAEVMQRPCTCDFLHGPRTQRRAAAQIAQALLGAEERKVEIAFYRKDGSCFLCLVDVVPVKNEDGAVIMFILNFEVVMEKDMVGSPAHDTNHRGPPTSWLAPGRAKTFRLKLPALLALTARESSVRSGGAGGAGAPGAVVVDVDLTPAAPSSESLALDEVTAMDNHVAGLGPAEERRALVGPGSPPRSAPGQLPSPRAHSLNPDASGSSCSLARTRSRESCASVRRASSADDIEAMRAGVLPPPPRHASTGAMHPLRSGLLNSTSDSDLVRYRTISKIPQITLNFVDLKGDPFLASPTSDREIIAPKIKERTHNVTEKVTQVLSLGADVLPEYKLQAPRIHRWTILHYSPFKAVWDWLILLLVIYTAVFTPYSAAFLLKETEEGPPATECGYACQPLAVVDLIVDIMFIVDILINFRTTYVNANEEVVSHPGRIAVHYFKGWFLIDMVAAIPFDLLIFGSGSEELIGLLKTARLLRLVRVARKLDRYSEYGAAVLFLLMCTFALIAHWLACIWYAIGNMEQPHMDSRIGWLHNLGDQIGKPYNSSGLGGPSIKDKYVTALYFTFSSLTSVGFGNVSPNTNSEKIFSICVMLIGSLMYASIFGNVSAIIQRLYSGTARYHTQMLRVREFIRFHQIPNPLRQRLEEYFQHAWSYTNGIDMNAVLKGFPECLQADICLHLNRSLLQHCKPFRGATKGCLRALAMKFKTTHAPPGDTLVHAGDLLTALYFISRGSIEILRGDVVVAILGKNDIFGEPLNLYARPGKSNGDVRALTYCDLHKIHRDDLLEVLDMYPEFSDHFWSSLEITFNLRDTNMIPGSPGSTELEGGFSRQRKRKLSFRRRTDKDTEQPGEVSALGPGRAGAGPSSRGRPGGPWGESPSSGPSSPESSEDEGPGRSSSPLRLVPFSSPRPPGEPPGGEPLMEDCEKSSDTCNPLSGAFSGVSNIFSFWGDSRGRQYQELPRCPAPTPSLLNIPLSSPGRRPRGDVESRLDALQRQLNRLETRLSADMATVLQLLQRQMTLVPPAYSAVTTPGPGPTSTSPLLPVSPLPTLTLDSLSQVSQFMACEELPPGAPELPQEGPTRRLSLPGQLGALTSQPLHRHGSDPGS

[3] = Solubility of the compound in FaSSIF at pH 6.8 by RapidFire mass spectrometry; type: ADME; details: simulated gi fluid
[4] = Clearance in rat liver microsomes; type: ADME, Microsome
Cytochrome P450 3A4 = Cytochrome P450 3A4 (Homo sapiens, UniProt P08684); assay: (§2) Inhibition of CYP3A4 (unknown origin); type: ADME
Sequence of Cytochrome P450 3A4 (P08684 whole entry): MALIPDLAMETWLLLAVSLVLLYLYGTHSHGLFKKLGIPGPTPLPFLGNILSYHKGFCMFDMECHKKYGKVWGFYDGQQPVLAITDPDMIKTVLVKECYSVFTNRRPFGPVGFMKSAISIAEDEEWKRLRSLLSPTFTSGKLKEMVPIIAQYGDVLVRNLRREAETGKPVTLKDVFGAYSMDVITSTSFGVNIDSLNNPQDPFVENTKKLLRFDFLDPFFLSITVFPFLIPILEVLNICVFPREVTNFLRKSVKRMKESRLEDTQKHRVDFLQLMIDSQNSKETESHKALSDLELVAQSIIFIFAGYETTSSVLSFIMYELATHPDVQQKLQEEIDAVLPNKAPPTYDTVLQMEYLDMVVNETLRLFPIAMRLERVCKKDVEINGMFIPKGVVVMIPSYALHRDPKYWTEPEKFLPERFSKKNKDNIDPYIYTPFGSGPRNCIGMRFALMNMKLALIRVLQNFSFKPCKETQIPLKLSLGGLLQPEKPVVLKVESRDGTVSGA

Hepatitis C virus [5] = assay: microbe, parasite or virus in culture; details: GT1a-genotype
Hepatitis C virus [6] = assay: microbe, parasite or virus in culture; details: GT1b-genotype
Hepatitis C virus [7] = assay: Antiviral activity against HCV GT4a-genotype assessed as inhibition of viral replication; type: functional, organism-based, Hepacivirus hominis
Hepatitis C virus [8] = assay: Antiviral activity against HCV GT2a-genotype assessed as inhibition of viral replication; type: functional, organism-based, Hepacivirus hominis
Hepatitis C virus [9] = assay: Antiviral activity against HCV GT5a-genotype assessed as inhibition of viral replication; type: functional, organism-based, Hepacivirus hominis
Hepatitis C virus [10] = assay: Antiviral activity against HCV GT3a-genotype assessed as inhibition of viral replication; type: functional, organism-based, Hepacivirus hominis
Vasopressin V1a receptor = Vasopressin V1a receptor (Homo sapiens, UniProt P37288)
Sequence of Vasopressin V1a receptor (P37288 whole entry): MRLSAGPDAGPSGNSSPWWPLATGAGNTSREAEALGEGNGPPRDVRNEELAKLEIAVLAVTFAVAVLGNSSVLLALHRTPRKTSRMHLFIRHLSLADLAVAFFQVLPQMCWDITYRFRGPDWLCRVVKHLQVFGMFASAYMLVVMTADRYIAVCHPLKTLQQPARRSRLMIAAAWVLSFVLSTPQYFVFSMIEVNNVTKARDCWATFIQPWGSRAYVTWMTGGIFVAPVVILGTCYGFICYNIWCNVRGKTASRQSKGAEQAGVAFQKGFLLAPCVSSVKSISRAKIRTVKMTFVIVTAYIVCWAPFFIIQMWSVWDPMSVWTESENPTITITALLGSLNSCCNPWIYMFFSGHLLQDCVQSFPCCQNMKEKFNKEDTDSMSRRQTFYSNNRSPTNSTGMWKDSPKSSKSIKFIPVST

[11] = human, microsomes
in vitro [12] = details: human, Caco-2
physchem [13] = details: buffer, pH 7.4
in vitro [14] = details: human, liver microsomes
[15] = Inhibition of human rhinovirus 3C protease; design: species or system Human rhinovirus sp.
[16] = Aqueous solubility of compound; type: physicochemical
[17] = Half life in human plasma; type: ADME, cell-free
Human rhinovirus sp. = assay: Inhibition of human rhinovirus 3C protease assessed as kobs/[I]
CYP3A4 = CYP3A4 (Homo sapiens, UniProt P08684); assay: as §2; type: ADME
Sequence of CYP3A4 (P08684 whole entry): as the sequence (P08684 whole entry) above

in vitro [18] = details: rat, liver microsomes
in vitro [19] = details: mouse, liver microsomes
in vitro [20] = details: human, liver microsomes; remark: listed apart in the source
in vitro [21] = details: human, Caco-2; remark: listed apart in the source
[22] = molecular target: T1, Beta-1 adrenergic receptor (Rattus norvegicus, UniProt P18090)
T1 sequence (P18090 whole entry): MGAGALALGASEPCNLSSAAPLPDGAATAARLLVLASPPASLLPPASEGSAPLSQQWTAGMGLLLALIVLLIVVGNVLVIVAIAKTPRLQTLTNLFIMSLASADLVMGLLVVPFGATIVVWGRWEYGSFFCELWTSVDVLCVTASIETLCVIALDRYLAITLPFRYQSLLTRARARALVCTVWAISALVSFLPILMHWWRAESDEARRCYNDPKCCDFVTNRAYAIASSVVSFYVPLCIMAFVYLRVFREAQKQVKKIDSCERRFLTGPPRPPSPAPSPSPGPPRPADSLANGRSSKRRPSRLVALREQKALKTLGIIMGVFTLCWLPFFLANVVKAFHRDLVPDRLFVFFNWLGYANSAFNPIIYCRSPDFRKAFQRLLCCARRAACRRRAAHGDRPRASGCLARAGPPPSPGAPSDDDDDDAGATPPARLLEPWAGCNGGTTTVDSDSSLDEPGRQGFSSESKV

[23] = molecular target: T2, Beta-2 adrenergic receptor (Bos taurus, UniProt Q28044); assay: Binding affinity to bovine lung membrane adrenergic beta-2 receptor; type: cell membranes
T2 sequence (Q28044 whole entry): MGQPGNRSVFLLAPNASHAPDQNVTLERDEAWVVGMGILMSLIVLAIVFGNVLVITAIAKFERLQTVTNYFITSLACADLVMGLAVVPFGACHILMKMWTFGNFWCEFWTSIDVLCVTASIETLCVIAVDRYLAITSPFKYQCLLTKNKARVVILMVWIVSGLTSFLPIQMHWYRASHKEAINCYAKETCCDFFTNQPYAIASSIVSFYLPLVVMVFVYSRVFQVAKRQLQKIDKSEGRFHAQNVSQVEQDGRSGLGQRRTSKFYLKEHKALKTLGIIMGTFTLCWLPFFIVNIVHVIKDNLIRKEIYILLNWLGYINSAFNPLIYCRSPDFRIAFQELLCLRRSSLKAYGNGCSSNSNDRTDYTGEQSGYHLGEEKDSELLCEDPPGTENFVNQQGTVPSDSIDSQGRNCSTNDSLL

[24] = molecular target: T2, Beta-2 adrenergic receptor; assay: Antagonist activity at bovine lung membrane adrenergic beta-2 receptor; type: cell membranes
[25] = molecular target: T1, Beta-1 adrenergic receptor; remark: listed apart in the source
[26] = molecular target: Polymerase acidic protein (Influenza A virus (A/Puerto Rico/8/1934(H1N1)), UniProt P03433)
Influenza A virus = assay: Antiviral activity against Influenza A virus A/PR/8/34 (PR8) strain infected in MDCK cells assessed as reduction in viral infection incubated for 72 hrs by crystal violet staining based assay; type: functional, organism-based
physchem [27] = details: octanol/PBS, pH 7.6
[28] = molecular target: Voltage-gated inwardly rectifying potassium channel KCNH2 (Homo sapiens, UniProt Q12809); assay: as §1; type: toxicity
Sequence of Voltage-gated inwardly rectifying potassium channel KCNH2 (Q12809 whole entry): as the sequence (Q12809 whole entry) above

What does the source list for `O=C(Cc1ccc(B2C=CC=CN2)cc1)Nc1cc(C2CC2)[nH]n1`?
logD [1]: 3.9; solubility [2]: 0.013 µM (≈ 0.00414 µg/mL); IC50 (hERG (KCNH2)): > 30000 nM; solubility [3]: 0.03 µM (≈ 0.00955 µg/mL); CLhep predicted [4]: 2.88 L/h/kg; IC50 (Cytochrome P450 3A4): > 20000 nM

With `COC(=O)N[C@H](C(=O)N1CCC[C@H]1c1nc2cc(-c3csc4c(-c5ccc(-c6c[nH]c([C@@H]7CCCN7C(=O)[C@H](NC(=O)OC)c7ccccc7)n6)cc5)csc34)ccc2[nH]1)C(C)C` as the compound, how does the EC50 (Hepatitis C virus [5]) read?
Its EC50 is 0.002 nM.

What about the EC50 (Hepatitis C virus [6]) of the same compound?
The EC50 was 0.002 nM.

What about the EC50 (Hepatitis C virus [7]) of the same compound?
The EC50 was 0.002 nM.

And the EC50 (Hepatitis C virus [8])?
Its EC50 is 0.002 nM.

And the EC50 (Hepatitis C virus [9])?
The EC50 was 0.002 nM.

And the EC50 (Hepatitis C virus [10])?
The EC50 was 0.1 nM.

For `Clc1cnc2n1CCCc1nnc([C@H]3CC[C@H](Oc4ccccn4)CC3)n1-2`, which Ki (Vasopressin V1a receptor) is on record?
Its Ki is 14 nM.

What about the CLH [11] of the same compound?
Its CLH is 1 µL/min/mg.

What about the Papp A→B (in vitro [12]) of the same compound?
The Papp A→B was 410 nm/s.

And the solubility kinetic (physchem [13])?
Its solubility kinetic is 49.6 µM (≈ 19.1 µg/mL).

Which remaining at 0.5 h (in vitro [14]) does the source give for `C#CC[C@@H](C(=O)N[C@H](/C=C/C(=O)OCC)C[C@@H]1CCNC1=O)n1cccc(NC(=O)c2cc(C)on2)c1=O` [IMOCITRELVIR] here?
The remaining at 0.5 h was 60%.

And the Papp A→B (in vitro [12])?
Its Papp A→B is 60 nm/s.

And the EC50 [15]?
The EC50 was 58 nM.

What about the solubility [16] of the same compound?
Its solubility is 0.377 mg/mL (≈ 720 µM).

And the half-life [17]?
The half-life was 6.6 h.

What about the Ratio (Human rhinovirus sp.) of the same compound?
The Ratio was 223000 M/s.

Which logD [1] does the source give for `O=C(Cc1ccc(-c2ccccc2)cc1)Nc1cc(C2CC2)[nH]n1` here?
Its logD is 4.4.

What about the solubility [2] of the same compound?
The solubility was under 0.004 µM.

What about the IC50 (hERG (KCNH2)) of the same compound?
The IC50 was over 30000 nM.

What about the solubility [3] of the same compound?
Its solubility is 0.006 µM (≈ 0.0019 µg/mL).

What about the CLhep predicted [4] of the same compound?
The CLhep predicted was 2.88 L/h/kg.

What about the IC50 (CYP3A4) of the same compound?
The IC50 was over 20000 nM.

With `Clc1cnc2n1CCCc1nnc(C3CCN(c4ccccn4)CC3)n1-2` as the compound, how does the microsomal CLint (in vitro [18]) read?
Its microsomal CLint is 32 µL/min/mg.

What about the microsomal CLint (in vitro [19]) of the same compound?
The microsomal CLint was 33 µL/min/mg.

And the Ki (Vasopressin V1a receptor)?
Its Ki is 140 nM.

What about the microsomal CLint (in vitro [20]) of the same compound?
The microsomal CLint was 4 µL/min/mg.

And the solubility kinetic (physchem [13])?
The solubility kinetic was 93.8 µM (≈ 34.7 µg/mL).

With `Clc1ccc2c(c1)CCCc1nnc(C3CCN(c4ccccn4)CC3)n1-2` as the compound, how does the efflux ratio (in vitro [21]) read?
Its efflux ratio is 1.

What about the solubility kinetic (physchem [13]) of the same compound?
The solubility kinetic was 8.9 µM (≈ 3.38 µg/mL).

Which results are given for `CCO/N=C/C(O)CNC(C)(C)C` (stereo not drawn)?
Ki [22]: 850 nM; Ki [23]: 850 nM; IC50 [24]: 269 nM; IC50 [25]: 8320 nM

With `CCN1CCC(Cc2ccc(Cl)cc2)(C(=O)/C=C(\O)C(=O)O)CC1` as the compound, how does the Ki [26] read?
The Ki was 90 nM.

And the IC50 (Influenza A virus)?
Its IC50 is 1100 nM.

With `O=C(CCCCCCC(=O)Nc1ccccc1)NO` [VORINOSTAT] as the compound, how does the logD (physchem [27]) read?
The logD was 0.99.

Which results are given for `O=C(NCCS(=O)(=O)c1ccc(C(F)(F)F)cn1)c1ccc(B2C=CC=CN2)cc1`?
logD [1]: 3.5; solubility [2]: < 0.004 µM; IC50 [28]: > 30000 nM; solubility [3]: 0.006 µM (≈ 0.00261 µg/mL); CLhep predicted [4]: 3.18 L/h/kg; IC50 (Cytochrome P450 3A4): > 20000 nM
